The test concerns the target T1, hP2X3 (human Purinergic P2X receptors subtype 3), clone B (Homo sapiens, UniProt P56373).
T1 sequence (P56373 1-397): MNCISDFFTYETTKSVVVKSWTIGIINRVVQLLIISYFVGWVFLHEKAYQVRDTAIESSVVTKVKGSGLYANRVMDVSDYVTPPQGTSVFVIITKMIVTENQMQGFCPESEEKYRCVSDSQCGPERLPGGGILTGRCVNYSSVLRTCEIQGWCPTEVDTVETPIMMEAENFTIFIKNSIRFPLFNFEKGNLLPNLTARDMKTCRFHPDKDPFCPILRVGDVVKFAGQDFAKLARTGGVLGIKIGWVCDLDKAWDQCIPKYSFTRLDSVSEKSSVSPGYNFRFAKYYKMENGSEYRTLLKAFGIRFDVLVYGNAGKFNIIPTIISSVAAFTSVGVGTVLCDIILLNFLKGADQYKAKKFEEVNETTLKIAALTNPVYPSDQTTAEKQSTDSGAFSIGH
Put plainly: hP2X3 FLIPR calcium (Fluo-4) antagonist assay, clone B. The following applies: Human P2X3 FLIPR Clone B IC50 (nM), RLE cells expressing hP2X3 clone B (NM_002559); agonist 500 nM α,β-methylene-ATP.

SMILES strings stand for the structures.

Experimental: The assay used a calcium indicator dye (Fluo-4) that emits fluorescence, the intensity of which is related to the concentration of calcium that entered the cell when P2X3 was activated and the channel opened. Activation of hP2X3 or rat P2X3 and rat P2X2/3 (from the coexpression of rat P2X3 and rat P2×2) is elicited the by P2X3 agonist α,β methylene-ATP (Sigma M6517), and the resulting fluorescence is measured with a FLIPR II™ instrument (Molecular Devices). Compounds are tested for their ability to inhibit the agonist-induced fluorescent signal.
For the rat P2X2/3 HEK-TREX cells, induction of the rat P2X3 expression is used to generate the rat P2X2/3 channels in HEK-TREX cells and performed by addition of 1 μg/mL tetracycline (Invitrogen) 24 h prior to compounds testing to the HEK-TREX expressing the rat P2X2 constitutively. On the day of the experiment, the cells and test compounds are prepared as follows. […] After preparing the compounds, the medium is removed from the cell plates by inversion. A loading solution of 30 μL assay buffer containing 4 μM of the calcium indicator dye FLUO-4 AM (Molecular Probes F14202) is added to each well using a Multidrop (Labsystems). […] The incubation is terminated by washing the cells four times in assay buffer using a Skatron Embla (Molecular Devices), and 25 μL of assay buffer was left in each well. Cell plates are then transferred to the FLIPR. Experiments are initiated by measuring a baseline fluorescence reading for 10 seconds, followed by the addition of 12.5 μL of cpds and data sampling for a total 280 seconds. The experiments are terminated by addition of 12.5 μL of a reference agonist (500 nM α,β-methylene-ATP) or buffer, producing a final assay volume of 50 μL followed by data sampling for an additional 280 seconds.
In P2X3 antagonist experiments (human and rat assays) data are analysed as normalised maximal peak fluorescence monitored following agonist addition and calculated as percent of relative fluorescent counts from control agonist. The dose-response antagonist inhibition curves are analyzed in a 4-parameter sigmoidal fit using a non-linear curve-fitting program (XLfit version 5.0.6, ID Business Solutions Limited, Guildford, UK).

On to `CC(=O)N1CCN(c2nc(NC3CCN(c4cccc(C)c4)C3)c3c(n2)C(=O)N(C(C)C)C3)CC1` (stereo not shown) [Example 224, 2-(4-acetylpiperazin-1-yl)-6-isopropyl-4-(1-m-tolylpyrrolidin-3-ylamino)-5H-pyrrolo[3,4-d]pyrimidin-7(6H)-one], for which the IC50 was determined as 4100 nM.

In the case of `CCOc1ccc(CC2CCCN2c2nc(N3CCN(C(C)=O)CC3)nc3c2CN(C(C)C)C3=O)cc1` (stereo not shown) [Example 289, 2-(4-acetylpiperazin-1-yl)-4-[2-[(4-ethoxyphenyl)methyl]pyrrolidin-1-yl]-6-isopropyl-5H-pyrrolo[4,3-e]pyrimidin-7-one], the IC50 was determined as 330 nM. The figure for `CC(=O)N1CCN(c2nc(NC(Cc3ccccc3)c3ccccc3)c3c(n2)C(=O)N(C(C)C)C3)CC1` (stereo not shown) [Example 88, 2-(4-Acetyl-piperazin-1-yl)-4-(1,2-diphenyl-ethylamino)-6-isopropyl-5,6-dihydro-pyrrolo[3,4-d]pyrimidin-7-one] is 1800 nM.

With `CC(=O)N1CCN(c2nc(NCc3ccc4c(c3)CCCN4C)c3c(n2)C(=O)N(C(C)C)C3)CC1` [Example 38, 2-(4-acetylpiperazin-1-yl)-6-isopropyl-4-{[(1-methyl-1,2,3,4-tetrahydroquinolin-6-yl)methyl]amino}-5,6-dihydro-7H-pyrrolo[3,4-d]pyrimidin-7-one], the concentration for half-maximal inhibition (IC50) was found to be 12000 nM. Next, `CC(=O)N1CCN(c2nc(NCC3(c4ccc(Cl)cc4)CCCC3)c3c(n2)C(=O)N(C(C)C)C3)CC1` [Example 113, 2-(4-acetylpiperazin-1-yl)-4-({[1-(4-chlorophenyl)cyclopentyl]methyl}amino)-6-isopropyl-5,6-dihydro-7H-pyrrolo[3,4-d]pyrimidin-7-one]: 460 nM; `CCOc1cccc([C@@H](C)Nc2nc(N3CCN(C(C)=O)CC3)nc3c2CN(C(C)C)C3=O)c1` [Example 156, (R)-2-(4-acetylpiperazin-1-yl)-4-(1-(3-ethoxyphenyl)ethylamino)-6-isopropyl-5H-pyrrolo[3,4-d]pyrimidin-7(6H)-one]: 830 nM. Next, `CC(C)N1Cc2c(NCc3cnc4ccccc4c3)nc(N3CCN4C(=O)CCC4C3)nc2C1=O` (stereo not shown) [Example 135, 6-Isopropyl-2-(6-oxohexahydropyrrolo[1,2-a]pyrazin-2(1H)-yl)-4-(quinolin-3-ylmethylamino)-5H-pyrrolo[3,4-d]pyrimidin-7(6M)-one]: 870 nM; `CC(=O)N1CCN(c2nc(NC(c3ccc(Cl)cc3)C3CC3)c3c(n2)C(=O)N(C(C)C)C3)CC1` (stereo not shown) [Example 27, 2-(4-acetylpiperazin-1-yl)-4-{[(4-chlorophenyl)(cyclopropyl)methyl]amino}-6-isopropyl-5,6-dihydro-7H-pyrrolo[3,4-d]pyrimidin-7-one]: 140 nM. As to `CCOc1cc([C@@H](C)Nc2nc(N3CCN(C(C)=O)CC3)nc3c2CN(C(C)C)C3=O)ccc1C` [Example 174, (R)-2-(4-acetylpiperazin-1-yl)-4-(1-(3-ethoxy-4-methylphenyl)ethylamino)-6-isopropyl-5H-pyrrolo[3,4-d]pyrimidin-7(6H)-one], the IC50 stood at 600 nM. Next, `CCC(C)N1Cc2c(NCc3cc4ccccc4cn3)nc(N3CCN(C(C)=O)CC3)nc2C1=O` (single isomer, unassigned; (+)) [Example 310, (+)-2-(4-acetylpiperazin-1-yl)-4-(3-isoquinolylmethylamino)-6-sec-butyl-5H-pyrrolo[3,4-d]pyrimidin-7-one]: 29 nM. The figure for `CC(=O)N(Cc1cc2ccccc2cn1)c1nc(N2CCN(C(C)=O)[C@H](C)C2)nc2c1CN(C(C)C)C2=O` [Example 326, (R)—N-(2-(4-acetyl-3-methylpiperazin-1-yl)-6-isopropyl-7-oxo-6,7-dihydro-5H-pyrrolo[3,4-d]pyrimidin-4-yl)-N-(isoquinolin-3-ylmethyl)acetamide] is 590 nM; for `CC(=O)N1CCCN(c2nc(NC(C)(C)Cc3ccc(Cl)cc3)c3c(n2)C(=O)N(C(C)C)C3)CC1` [Example 65, 2-(4-acetyl-1,4-diazepan-1-yl)-4-{[2-(4-chlorophenyl)-1,1-dimethylethyl]amino}-6-isopropyl-5,6-dihydro-7H-pyrrolo[3,4-d]pyrimidin-7-one] it is 420 nM; for `Cc1ccc(C(Nc2nc(N3CCOCC3)nc3c2CN(C(C)C)C3=O)c2ccccc2)cc1` (stereo not shown) [Example 76, 6-isopropyl-2-morpholin-4-yl-[(phenyl-p-tolyl-methyl)-amino]-5,6-dihydro-pyrrolo[3,4-d]pyrimidin-7-one] it is 230 nM. Next, `CC(C)N1Cc2c(NCc3cnc4ccccc4c3)nc(N(C)CC3CCCO3)nc2C1=O` (stereo not shown) [Example 217, 6-isopropyl-2-(methyl-(tetrahydrofuran-2-ylmethyl)amino)-4-(3-quinolylmethylamino)-5H-pyrrolo[3,4-d]pyrimidin-7-one]: 5900 nM; `CC(C)N1Cc2c(NCc3cnc4ccccc4c3)nc(N3CCC(C(N)=O)CC3)nc2C1=O` [Example 209, 1-(6-isopropyl-7-oxo-4-(quinolin-3-ylmethylamino)-6,7-dihydro-5H-pyrrolo[3,4-d]pyrimidin-2-yl)piperidine-4-carboxamide]: 2800 nM; `COCCNc1nc(NC(c2ccccc2)c2ccc(C)cc2)c2c(n1)C(=O)N(C(C)C)C2` (stereo not shown) [Example 98, 6-isopropyl-2-(2-methoxy-ethylamino)-4-[(phenyl-p-tolyl-methyl)-amino]-5,6-dihydro-pyrrolo[3,4-d]-pyrimidin-7-one]: 210 nM.

With `CC(=O)N1CCN(c2nc(N[C@H](C)c3ccc(OC(C)C)cc3)c3c(n2)C(=O)N(C(C)C)C3)CC1` [Example 176, (R)-2-(4-acetylpiperazin-1-yl)-4-(1-(4-isopropoxyphenyl)ethylamino)-6-isopropyl-5H-pyrrolo[3,4-d]pyrimidin-7(6H)-one], the IC50 is 80 nM.

Regarding `CC(=O)N1CCN(c2nc(NCc3cc(-c4ccccc4)nn3C)c3c(n2)C(=O)N(C(C)C)C3)CC1` [Example 154, 4-(4-acetylpiperazin-1-yl)-2-[(2-methyl-5-phenyl-pyrazol-3-yl)methylamino]-8-propan-2-yl-3,5,8-triazabicyclo[4.3.0]nona-1,3,5-trien-7-one], the IC50 was found to be 160 nM.

For `CC(=O)NCCNc1nc2c(c(N3CCCC3Cc3ccc(Cl)cc3)n1)CN(C(C)C)C2=O` (stereo not shown) [Example 45, N-[2-({4-[2-(4-chlorobenzyl)pyrrolidin-1-yl]-6-isopropyl-7-oxo-6,7-dihydro-5H-pyrrolo[3,4-d]pyrimidin-2-yl}amino)ethyl]acetamide], the IC50 amounted to 2200 nM.

In the case of `CC(=O)N1CCN(c2nc(NC(C)c3ccc(CC(C)C)cc3)c3c(n2)C(=O)N(C(C)C)C3)CC1` (stereo not shown) [Example 6, 2-(4-acetylpiperazin-1-yl)-4-{[1-(4-isobutylphenyl)ethyl]amino}-6-isopropyl-5,6-dihydro-7H-pyrrolo[3,4-d]pyrimidin-7-one], the IC50 worked out at 160 nM.

With `CC(=O)N1CCN(c2nc(N[C@@H](C)c3cnc4ccccc4c3)c3c(n2)C(=O)N(C(C)C)C3)CC1` [Example 234, (S)-2-(4-acetylpiperazin-1-yl)-6-isopropyl-4-(1-(quinolin-3-yl)ethylamino)-5H-pyrrolo[3,4-d]pyrimidin-7(6H)-one], the IC50 is 1100 nM. For the molecule `CCN1CCN(c2cc(C(F)(F)F)ccc2CNc2nc(N3CCN(C(C)=O)CC3)nc3c2CN(C(C)C)C3=O)CC1` [Example 223, 2-(4-acetylpiperazin-1-yl)-4-(2-(4-ethylpiperazin-1-yl)-4-(trifluoromethyl)benzylamino)-6-isopropyl-5H-pyrrolo[3,4-d]pyrimidin-7(6H)-one], the concentration for half-maximal inhibition (IC50) was determined as 620 nM.

`CC(C)N1Cc2c(NCc3cnc4ccccc4c3)nc(N3CCN4CCCC4C3)nc2C1=O` (stereo in doubt) [Example 141, (R)-2-(Hexahydro-pyrrolo[1,2-a]pyrazin-2-yl)-6-isopropyl-4-[(quinolin-3-ylmethyl)-amino]-5,6-dihydro-pyrrolo[3,4-d]pyrimidin-7-one]: the half-inhibitory concentration (IC50) came to 7600 nM. For the molecule `CC(C)N1Cc2c(NCc3cnc4ccccc4c3)nc(N3CCOCC3)nc2C1=O` [Example 211, 6-isopropyl-2-morpholino-4-(quinolin-3-ylmethylamino)-5H-pyrrolo[3,4-d]pyrimidin-7(6H)-one], the IC50 is 5100 nM. On to `CC(C)N1Cc2c(Nc3ccc(Cl)cc3)nc(N3CCN(C(=O)CC4NC(=O)NC4=O)CC3)nc2C1=O` (stereo not shown) [Example 31, 5-[2-(4-{4-[(4-chlorophenyl)amino]-6-isopropyl-7-oxo-6,7-dihydro-5H-pyrrolo[3,4-d]pyrimidin-2-yl}piperazin-1-yl)-2-oxoethyl]imidazolidine-2,4-dione], for which the half-inhibitory concentration (IC50) was 270 nM.

As for `Cc1ccc(C(Nc2nc(N3CCN(C(C)C)CC3)nc3c2CN(C(C)C)C3=O)c2ccccc2)cc1` (stereo not shown) [Example 102, 2-(4-isopropyl-piperazin-1-yl)-6-isopropyl-4-[(phenyl-p-tolyl-methyl)-amino]-5,6-dihydro-pyrrolo[3,4-d]-pyrimidin-7-one], the 50% inhibitory concentration (IC50) is 200 nM.

For the molecule `CC(C)N1Cc2c(NCC(c3ccccc3)c3ccccc3)nc(NCCCN(C)C)nc2C1=O` [Example 108, 2-(3-Dimethylamino-propylamino)-4-(2,2-diphenyl-ethylamino)-6-isopropyl-5,6-dihydro-pyrrolo[3,4-d]pyrimidin-7-one], the IC50 was 4400 nM.

Regarding `CC(=O)N1CCN(c2nc(NC(C)(C)Cc3cccc(C)c3)c3c(n2)C(=O)N(C(C)C)C3)CC1` [Example 333, 2-(4-acetylpiperazin-1-yl)-6-isopropyl-4-(2-methyl-1-m-tolylpropan-2-ylamino)-5H-pyrrolo[3,4-d]pyrimidin-7(6H)-one], the IC50 was determined as 830 nM.

The values are drawn from patent publication US20090099195A1 (ASTRAZENECA AB, priority 2007, published 2009).
